Results from patent publication US20120100990A1, “4 -AMINOPICOLINATES AND THEIR USE AS HERBICIDES” (SYNGENTA CROP PROTECTION LLC, priority 2009, published 2012).

Columns and labels:
Format in all cases: in vivo
[1] = system: Alopecurus myosuroides (ALOMY); experiment: Post-emergence biological efficacy, glasshouse pot test; settings: 312 h, 1,000 g/ha, evaluated after 13 days, 100=total damage, 0=no damage, read-out: Percentage damage caused to weed species, post-emergence, ALOMY
Outline: (§1)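 Weed seedlings raised in standard soil for 8 days in glasshouse (24/16 °C day/night, 14 h light, 65% humidity) were sprayed with compound in acetone/water (50:50) with 0.5% Tween 20 at 1000 or 250 g/ha. Damage scored visually after 13 days (0 = none, 100 = total).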

[2] = system: Echinochloa crus-galli (ECHCG); experiment: as above; settings: 312 h, 1,000 g/ha, evaluated after 13 days, 100=total damage, 0=no damage, read-out: Percentage damage caused to weed species, post-emergence, ECHCG
Outline: as §1

Solanum nigrum (SOLNI) [3] = experiment: as above; settings: 312 h, 1,000 g/ha, evaluated after 13 days, 100=total damage, 0=no damage, read-out: Percentage damage caused to weed species, post-emergence, SOLNI
Outline: as §1

Setaria faberi (SETFA) [4] = experiment: as above; settings: 312 h, 1,000 g/ha, evaluated after 13 days, 100=total damage, 0=no damage, read-out: Percentage damage caused to weed species, post-emergence, SETFA
Outline: as §1

[5] = system: Amaranthus retroflexus (AMARE); experiment: as above; settings: 312 h, 1,000 g/ha, evaluated after 13 days, 100=total damage, 0=no damage, read-out: Percentage damage caused to weed species, post-emergence, AMARE
Outline: as §1

[6] = system: Ipomea hederaceae (IPOHE); experiment: as above; settings: Ipomoea hederacea, 312 h, 1,000 g/ha, evaluated after 13 days, 100=total damage, 0=no damage, read-out: Percentage damage caused to weed species, post-emergence, IPOHE
Outline: as §1

[7] = system: Alopecurus myosuroides (ALOMY); experiment: Pre-emergence biological efficacy, glasshouse pot test; settings: 312 h, 1,000 g/ha, evaluated after 13 days, 100=total damage, 0=no damage, read-out: Percentage damage caused to weed species, pre-emergence, ALOMY
Outline: (§2)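 Seeds sown in standard soil were sprayed one day after sowing with compound in acetone/water (50:50) plus 0.5% Tween 20 at 1000 or 250 g/ha. Pots stayed in the glasshouse at 24/16 °C day/night, 14 h light, 65% humidity. Damage was scored after 13 days (0 = none, 100 = total).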

[8] = system: Echinochloa crus-galli (ECHCG); experiment: as above; settings: 312 h, 1,000 g/ha, evaluated after 13 days, 100=total damage, 0=no damage, read-out: Percentage damage caused to weed species, pre-emergence, ECHCG
Outline: as §2

Solanum nigrum (SOLNI) [9] = experiment: as above; settings: 312 h, 1,000 g/ha, evaluated after 13 days, 100=total damage, 0=no damage, read-out: Percentage damage caused to weed species, pre-emergence, SOLNI
Outline: as §2

Setaria faberi (SETFA) [10] = experiment: as above; settings: 312 h, 1,000 g/ha, evaluated after 13 days, 100=total damage, 0=no damage, read-out: Percentage damage caused to weed species, pre-emergence, SETFA
Outline: as §2

[11] = system: Amaranthus retroflexus (AMARE); experiment: as above; settings: 312 h, 1,000 g/ha, evaluated after 13 days, 100=total damage, 0=no damage, read-out: Percentage damage caused to weed species, pre-emergence, AMARE
Outline: as §2

[12] = system: Ipomea hederaceae (IPOHE); experiment: as above; settings: Ipomoea hederacea, 312 h, 1,000 g/ha, evaluated after 13 days, 100=total damage, 0=no damage, read-out: Percentage damage caused to weed species, pre-emergence, IPOHE
Outline: as §2

COC(=O)c1nc(Cl)cc(NCc2ccccc2[N+](=O)[O-])c1Cl [Compound 15-2, 3,6-Dichloro-4-[(2-nitrophenylmethyl)-amino]-pyridine-2-carboxylic acid methyl ester]
pest or weed control at 1000 g/ha [1]: 70% | pest or weed control at 1000 g/ha [2]: 70% | pest or weed control at 1000 g/ha (Solanum nigrum (SOLNI) [3]): 100% | pest or weed control at 1000 g/ha (Setaria faberi (SETFA) [4]): 90% | pest or weed control at 1000 g/ha [5]: 100% | pest or weed control at 1000 g/ha [6]: 90% | pest or weed control at 1000 g/ha [7]: 90% | pest or weed control at 1000 g/ha [8]: 80% | pest or weed control at 1000 g/ha (Solanum nigrum (SOLNI) [9]): 100% | pest or weed control at 1000 g/ha (Setaria faberi (SETFA) [10]): 90% | pest or weed control at 1000 g/ha [11]: 100% | pest or weed control at 1000 g/ha [12]: 100%

COC(=O)c1nc(Cl)c(Cl)c(NCc2ccccc2[N+](=O)[O-])c1C [Compound 15-43, 5,6-Dichloro-3-methyl-4-[(2-nitrophenyl-methyl)-amino]-pyridine-2-carboxylic acid methyl ester]
pest or weed control at 1000 g/ha [1]: 40% | pest or weed control at 1000 g/ha [2]: 10% | pest or weed control at 1000 g/ha (Solanum nigrum (SOLNI) [3]): 100% | pest or weed control at 1000 g/ha (Setaria faberi (SETFA) [4]): 40% | pest or weed control at 1000 g/ha [5]: 100% | pest or weed control at 1000 g/ha [6]: 70% | pest or weed control at 1000 g/ha [7]: 0% | pest or weed control at 1000 g/ha [8]: 0% | pest or weed control at 1000 g/ha (Solanum nigrum (SOLNI) [9]): 70% | pest or weed control at 1000 g/ha (Setaria faberi (SETFA) [10]): 0% | pest or weed control at 1000 g/ha [11]: 90% | pest or weed control at 1000 g/ha [12]: 50%
